Measurements: patent US20170121315A1, “HETEROBICYCLICALLY SUBSTITUTED 4-OXOBUTANE ACID DERIVATIVES AND USE THEREOF” (priority 2014, published 2017)

Key:
[1] = test system: rat hepatocytes; experiment: Hepatocyte assay for determination of metabolic stability; format: in vitro ADME; settings: after incubation with rat hepatocytes
[2] = biological target: T1, MMP-7 (Homo sapiens, UniProt P09237); experiment: In vitro MMP-7 inhibition test; format: biochemical; settings: human MMP-7
T1 construct: purchased R&D Systems 907-MP
T1 sequence (P09237 95-267): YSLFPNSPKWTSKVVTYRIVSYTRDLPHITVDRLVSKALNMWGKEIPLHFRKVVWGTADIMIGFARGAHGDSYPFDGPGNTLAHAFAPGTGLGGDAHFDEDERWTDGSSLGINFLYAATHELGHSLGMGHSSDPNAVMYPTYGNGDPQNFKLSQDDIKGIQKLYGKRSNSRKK
From the text: (§1) The MMP-mediated amidolytic cleavage of a suitable peptide substrate leads to an increase in fluorescent light here too. The signal intensity of the fluorescent light is directly proportional to the enzyme activity. The active concentration of a test compound at which half the enzyme is inhibited (50% signal intensity of the fluorescent light) is reported as the IC50 value.
(§2) Recombinant MMP-7 (from R&D Systems, 907-MP) is chemically activated in accordance with the manufacturer's instructions using APMA. 1 μl of the test compound to be analysed (as a solution in DMSO, suitable concentrations e.g. 1 nM to 30 μM) is pipetted into 24 μl of activated enzyme (final concentration e.g. 0.5 nM) in reaction buffer (50 mM Tris/HCl pH 7.5, 10 mM CaCl2, 150 mM NaCl, 0.05% Brij®-35) in a white 384-hole microtiter plate (MTP). The enzymatic reaction is started by adding the intramolecularly quenched Mca-Pro-Leu-Gly-Leu-Dpa(Dnp)-Ala-Arg-NH2 substrate (final concentration e.g. 10 μM; R&D Systems, ES-001), so as to result in a total test volume of 50 μl. The course of the MMP-7 reaction is measured by measuring the fluorescence intensity (excitation 320 nm, emission 410 nm) over a suitable period of time (e.g. over 120 min at a temperature of 32° C.).

[3] = biological target: T2, MMP-14 (Homo sapiens, UniProt P50281); experiment: In vitro MMP-14 inhibition test; format: biochemical; settings: human MMP-14
T2 construct: purchased R&D Systems 918-MP
From the text: as §1
Recombinant MMP-14 (R&D Systems, 918-MP) is enzymatically activated in accordance with the manufacturer's instructions using recombinant furin (R&D Systems, 1503-SE). 1 μl of the test compound to be analysed (as a solution in DMSO, suitable concentrations e.g. 1 nM to 30 μM) is pipetted into 24 μl of activated enzyme (final concentration e.g. 0.5 nM) in reaction buffer (50 mM Tris/HCl pH 7.5, 10 mM CaCl2, 150 mM NaCl, 0.05% Brij®-35) in a white 384-hole microtiter plate (MTP). The enzymatic reaction is started by adding the intramolecularly quenched Mca-Lys-Pro-Leu-Gly-Leu-Dpa(Dnp)-Ala-Arg-NH2 substrate (final concentration e.g. 5 μM; R&D Systems, ES-010), so as to result in a total test volume of 50 μl. The course of the MMP-14 reaction is measured by measuring the fluorescence intensity (excitation 320 nm, emission 410 nm) over a suitable period of time (e.g. over 120 min at a temperature of 32° C.).

[4] = biological target: T3, MMP-9 (Homo sapiens, UniProt P14780); experiment: In vitro MMP-9 inhibition test; format: biochemical; settings: human MMP-9
T3 construct: purchased R&D Systems 911-MP
From the text: as §1
as §2, with “MMP-9 (R&D” for “MMP-7 (from R&D”, “911-MP)” for “907-MP)”, “0.1” for “0.5”, “MMP-9” for “MMP-7”

T3 sequence (P14780 107-707 limits assumed): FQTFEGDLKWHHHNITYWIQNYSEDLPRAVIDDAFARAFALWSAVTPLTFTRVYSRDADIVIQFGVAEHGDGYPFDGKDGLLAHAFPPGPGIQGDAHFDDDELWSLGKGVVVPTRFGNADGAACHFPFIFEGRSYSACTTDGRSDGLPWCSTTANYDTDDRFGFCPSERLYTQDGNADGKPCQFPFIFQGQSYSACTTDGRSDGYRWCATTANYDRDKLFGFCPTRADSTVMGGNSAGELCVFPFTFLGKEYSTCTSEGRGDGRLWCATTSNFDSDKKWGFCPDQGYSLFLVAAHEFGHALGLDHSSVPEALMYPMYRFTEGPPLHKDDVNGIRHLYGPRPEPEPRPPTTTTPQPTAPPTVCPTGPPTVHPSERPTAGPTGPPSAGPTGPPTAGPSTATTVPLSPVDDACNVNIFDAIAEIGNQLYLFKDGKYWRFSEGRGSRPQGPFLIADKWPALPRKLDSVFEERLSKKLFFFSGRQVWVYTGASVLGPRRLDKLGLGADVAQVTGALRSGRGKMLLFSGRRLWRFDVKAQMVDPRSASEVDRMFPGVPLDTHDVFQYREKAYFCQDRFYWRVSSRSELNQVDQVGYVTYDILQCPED

O=C(C[C@H](CCn1nnc2ccccc2c1=O)C(=O)O)c1noc2cc(OCC3CCOCC3)ccc12 (single isomer, unassigned; enantiomer 2) [Example 135]
CLblood (calculated blood clearance, well-stirred) [1]: 22.7 mL/min/kg | Fmax (maximum possible bioavailability after oral administration, well-stirred) [1]: 67.5% | IC50 [2]: > 40 µM | IC50 [3]: 3.5 µM | IC50 [4]: 1.7 µM

CCCCCOc1ccc2c(C(=O)CC(CCn3nnc4ccccc4c3=O)C(=O)O)noc2c1 (racemic) [Example 140, (+/−)-4-Oxo-2-[2-(4-oxo-1,2,3-benzotriazin-3(4H)-yl)ethyl]-4-[6-(pentyloxy)-1,2-benzoxazol-3-yl]butanoic acid]
CLblood (calculated blood clearance, well-stirred) [1]: 24.8 mL/min/kg | Fmax (maximum possible bioavailability after oral administration, well-stirred) [1]: 64.5% | IC50 [2]: > 40 µM | IC50 [3]: 3.4 µM | IC50 [4]: 0.043 µM

O=C(CC(CCn1nnc2ccccc2c1=O)C(=O)O)c1cc2ccc(OCC3CC3)cc2s1 (single isomer, unassigned; (+)) [Example 112, (+)-4-[6-(Cyclopropylmethoxy)-1-benzothiophen-2-yl]-4-oxo-2-[2-(4-oxo-1,2,3-benzotriazin-3(4H)-yl)ethyl]butanoic acid]
CLblood (calculated blood clearance, well-stirred) [1]: 33.2 mL/min/kg | Fmax (maximum possible bioavailability after oral administration, well-stirred) [1]: 52.5% | IC50 [2]: 3.2 µM | IC50 [3]: 2.8 µM | IC50 [4]: 0.59 µM

O=C(CC(CCn1nnc2ccccc2c1=O)C(=O)O)c1cc2ccc(OCCc3ccccc3)cc2o1 (racemic) [Example 73, (+/−)-4-Oxo-2-[2-(4-oxo-1,2,3-benzotriazin-3(4H)-yl)ethyl]-4-[6-(2-phenylethoxy)-1-benzofur-2-yl]butanoic acid]
CLblood (calculated blood clearance, well-stirred) [1]: 23.2 mL/min/kg | Fmax (maximum possible bioavailability after oral administration, well-stirred) [1]: 66.9% | IC50 [2]: > 40 µM | IC50 [3]: > 40 µM | IC50 [4]: 2.2 µM

O=C(CC(CCn1nnc2ccccc2c1=O)C(=O)O)c1noc2cc(OCc3ccc(F)cc3)ccc12 (racemic) [Example 136, (+/−)-4-{6-[(4-Fluorobenzyl)oxy]-1,2-benzoxazol-3-yl}-4-oxo-2-[2-(4-oxo-1,2,3-benzotriazin-3(4H)-yl)ethyl]butanoic acid]
CLblood (calculated blood clearance, well-stirred) [1]: 12.2 mL/min/kg | Fmax (maximum possible bioavailability after oral administration, well-stirred) [1]: 82.7% | IC50 [2]: > 40 µM | IC50 [3]: 4.9 µM | IC50 [4]: 0.19 µM

O=C(CC(CCn1nnc2ccccc2c1=O)C(=O)O)c1cc2cc(OCC3CCOCC3)ccc2o1 (racemic) [Example 5, (+/−)-4-Oxo-2-[2-(4-oxo-1,2,3-benzotriazin-3(4H)-yl)ethyl]-4-[5-(tetrahydro-2H-pyran-4-ylmethoxy)-1-benzofur-2-yl]butanoic acid]
CLblood (calculated blood clearance, well-stirred) [1]: 27 mL/min/kg | Fmax (maximum possible bioavailability after oral administration, well-stirred) [1]: 61.4% | IC50 [2]: > 40 µM | IC50 [3]: 34 µM | IC50 [4]: 9.1 µM

O=C(CC(CCn1nnc2ccc(C(F)(F)F)cc2c1=O)C(=O)O)c1noc2cc(OCc3ccccc3)ccc12 (racemic) [Example 154, (+/−)-4-[6-(Benzyloxy)-1,2-benzoxazol-3-yl]-4-oxo-2-{2-[4-oxo-6-(trifluoromethyl)-1,2,3-benzotriazin-3(4H)-yl]ethyl}butanoic acid]
CLblood (calculated blood clearance, well-stirred) [1]: 20.3 mL/min/kg | Fmax (maximum possible bioavailability after oral administration, well-stirred) [1]: 70.9% | IC50 [2]: 18 µM | IC50 [3]: 26 µM | IC50 [4]: 0.25 µM

O=C(CC(CCn1nnc2ccccc2c1=O)C(=O)O)c1noc2cc(OCCc3ccccc3)ccc12 (racemic) [Example 144, (+/−)-4-Oxo-2-[2-(4-oxo-1,2,3-benzotriazin-3(4H)-yl)ethyl]-4-[6-(2-phenylethoxy)-1,2-benzoxazol-3-yl]butanoic acid]
CLblood (calculated blood clearance, well-stirred) [1]: 29 mL/min/kg | Fmax (maximum possible bioavailability after oral administration, well-stirred) [1]: 58.6% | IC50 [2]: > 40 µM | IC50 [3]: 2.5 µM | IC50 [4]: 0.76 µM

O=C(CC(CCn1nnc2ccccc2c1=O)C(=O)O)c1noc2cc(OCc3ccccc3)ccc12 (racemic) [Example 145, (+/−)-4-[6-(Benzyloxy)-1,2-benzoxazol-3-yl]-4-oxo-2-[2-(4-oxo-1,2,3-benzotriazin-3(4H)-yl)ethyl]butanoic acid]
CLblood (calculated blood clearance, well-stirred) [1]: 25.5 mL/min/kg | Fmax (maximum possible bioavailability after oral administration, well-stirred) [1]: 63.7% | IC50 [2]: > 40 µM | IC50 [3]: 4 µM | IC50 [4]: 0.17 µM

O=C(O)[C@@H]1[C@@H](Cn2nnc3ccc(C(F)(F)F)cc3c2=O)CC[C@H]1C(=O)c1cc2cc(OCCc3ccccc3)ccc2o1 (single isomer, unassigned; enantiomer 2) [Example 159, (+)-(1RS,2SR,5RS)-2-{[4-Oxo-6-(trifluoromethyl)-1,2,3-benzotriazin-3(4H)-yl]methyl}-5-{[5-(2-phenylethoxy)-1-benzofur-2-yl]carbonyl}cyclopentanecarboxylic acid (enantiomer 2)]
CLblood (calculated blood clearance, well-stirred) [1]: 10.8 mL/min/kg | Fmax (maximum possible bioavailability after oral administration, well-stirred) [1]: 84.5% | IC50 [2]: 0.3 µM | IC50 [3]: 2.6 µM | IC50 [4]: 0.68 µM
